# Assay results from patent US10221169B2, “Substituted aminothiazoles for the treatment of tuberculosis” (THE BROAD INSTITUTE, INC., priority 2013, dated 2019).
# Tests used:
# [1] = system: Replicating Mtb; experiment: microbe, parasite or virus in culture; format: cell-based, M. tuberculosis H37Rv; conditions: log-phase Mtb; for IC90: Mycobacterium tuberculosis, 72 h, read-out: Replicating Mtb Log MIC IC90 (uM, GFP) (converted)
# [2] = system: Non-replicating Mtb Carbon-starved; experiment: Non-replicating carbon-starved Mtb IC99 by luciferase; format: cell-based, M. tuberculosis H37Rv; conditions: Mycobacterium tuberculosis, luciferase readout, 99% killing
# [3] = system: M. tuberculosis; experiment: MIC of control anti-tuberculosis antibiotics; format: cell-based; conditions: Mycobacterium tuberculosis, MIC used as reference for 10× MIC
Structure (SMILES),IC90 [1],MIC [2],"Replicating Mtb Log MIC IC90 (uM, GFP) [1]",MIC [3]
"Cc1cccnc1Nc1nc(-c2ccccn2)cs1 [Compound 1, N-(3-methylpyridin-2-yl)-4-(pyridin-2-yl)thiazol-2-amine]",0.5 µM,1 µM,,
Clc1ccc(Nc2nc(-c3ccccn3)cs2)nc1 [Compound 2],2 µM,2 µM,,
COc1ccc(Nc2nc(-c3ccccn3)cs2)c(OC)c1 [Compound 3],8 µM,,,
FC(F)(F)c1ccccc1Nc1nc(-c2ccccn2)cs1 [Compound 4],62 µM,,,
COc1ccc(CCNc2nc(-c3ccccn3)cs2)cc1OC [Compound 5],62 µM,8 µM,,
CN(C)c1ccc(Nc2nc(-c3ccccn3)cs2)nc1 [Compound 6],125 µM,8 µM,,
Cc1ccccc1Nc1nc(-c2ccccn2)cs1 [Compound 9],62 µM,8 µM,,
Cc1cccnc1Nc1nc(-c2cccnc2)cs1 [Compound 10],125 µM,,,
Cc1cccnc1Nc1nc(-c2ccncc2)cs1 [Compound 11],,,None detected,
Cc1ccc(-c2csc(Nc3ncccc3C)n2)cc1 [Compound 12],125 µM,,,
c1ccc(Nc2nc(-c3ccccn3)cs2)nc1 [Compound 13],8 µM,,,
Cc1ccnc(Nc2nc(-c3ccccn3)cs2)c1 [Compound 14],16 µM,,,
C/C(=N\Nc1nc(C)c(C)s1)c1ccc(Br)cc1 [Compound 15],62 µM,16 µM,,
"Cc1cccnc1Nc1nc(-c2ccccn2)c(Br)s1 [Compound 17, 5-bromo-N-(3-methylpyridin-2-yl)-4-(pyridin-2-yl)thiazol-2-amine]",< 1 µM,< 16 µM,,
"CCOC(=O)c1sc(Nc2ncccc2C)nc1-c1ccccn1 [Compound 18, ethyl 2-((3-methylpyridin-2-yl)amino)-4-(pyridin-2-yl)thiazole-5-carboxylate]",4 µM,8 µM,,
"Cc1cccnc1Nc1nc(-c2ccccn2)c(CN2CCOCC2)s1 [Compound 19, N-(3-methylpyridin-2-yl)-5-(morpholinomethyl)-4-(pyridin-2-yl)thiazol-2-amine]",16 µM,32 µM,,
"CC(C)(C)OC(=O)COc1cccnc1Nc1nc(-c2ccccn2)cs1 [Compound 20, tert-butyl 2-((2-((4-(pyridin-2-yl)thiazol-2-yl)amino)pyridin-3-yl)oxy)acetate]",,4 µM,,
"O=C(O)COc1cccnc1Nc1nc(-c2ccccn2)cs1 [Compound 21, 2-((2-((4-(pyridin-2-yl)thiazol-2-yl)amtno)pyridin-3-yl)oxy)acetic acid]",125 µM,> 125 µM,,
CO[C@H]1/C=C/O[C@@]2(C)Oc3c(C)c(O)c4c(O)c(c(/C=N/N5CCN(C)CC5)c(O)c4c3C2=O)NC(=O)/C(C)=C\C=C\[C@H](C)[C@H](O)[C@@H](C)[C@@H](O)[C@@H](C)[C@H](OC(C)=O)[C@@H]1C [rifampin],,,,0.01 µg/mL
